In one data set the test system is healthy subjects. Put plainly: Thorough QT study: cardiodynamic ECG assessment. Format: in vivo, human.
Data set [1] can be described thus: Plasma pharmacokinetics in thorough QT study. Format: in vivo, human. The following applies: moxifloxacin 400 mg single oral dose.

Molecules are shown by their SMILES.

In the case of `COc1c(N2C[C@@H]3CCCN[C@@H]3C2)c(F)cc2c(=O)c(C(=O)O)cn(C3CC3)c12` [Moxifloxacin], in the data set on healthy subjects (any treatment, any time point), the “Subjects with QTcF of >450 milliseconds or ΔQTcF of >30 milliseconds” value is listed as “No subject”. Also, in the data set with healthy subjects (during the study), the U-wave presence result is given as “No U‐wave observations”. Besides, in the data set on healthy subjects (moxifloxacin 400 mg, 0.5, 1, and […] after dosing), the “Largest LS mean ΔQRS” value was determined as 0.2 milliseconds. In addition, the “Largest LS mean ΔΔQTcF” value with healthy subjects (moxifloxacin 400 mg, 2 hours after dosing) was 12.9 milliseconds. For the same molecule, the “Peak LS mean ΔQTcF” value with healthy subjects (moxifloxacin 400 mg, 3 hours after dosing) is 9.2 milliseconds. In addition, the “Largest LS mean ΔHR” value in the data set with healthy subjects (moxifloxacin 400 mg, 6 hours after dosing) is listed as 8.7 bpm. The “Frequencies of flat, notched, and biphasic T-wave morphologies” value in the data set on healthy subjects (versus placebo) is given as “lower than or the same as for placebo”. Also, in data set [1], the “Time at which plasma concentration reached its maximal value” amounted to 2 h and the “Time plasma concentration remained detectable” value was 72 h.
